Values of other authors as cited in patent US20110110858A1, “Gold nanoparticle imaging agents and uses thereof” (priority 2009, published 2011).

Conditions: 25° C.

pKa of the central CO2H: 2.5
pKa of the lysyl amino group: 10.1
pKa of the prolyl CO2H: 4.0
pKa of the secondary amine group: 6.7
Structure (SMILES): NCCCC[C@H](N[C@@H](CCc1ccccc1)C(=O)O)C(=O)N1CCC[C@H]1C(=O)O [lisinopril]
